How the values were obtained:
Assay type in all cases: in vivo, BALB/c mice
[1] = tested on: normal mice; assay: Serum biochemical parameters (ALT, AST, creatinine, urea) of normal mice treated with ART
Description: Levels of alanine aminotransferase (ALT) and aspartate aminotransferase (AST) from the serum were determined using ALT and AST estimation kits (Robonik India Pvt. Ltd, India). Briefly, for ALT activity estimation, Reagent 1 (Tris Buffer, L-Alanine, Lactate Dehydrogenase) and Reagent 2 (α-ketoglutarate, NADH) was mixed (4:1) with 100 µl serum. After 60 seconds incubation, absorbance was measured at 340 nm every minute for 180 seconds (ΔA/minute). Finally, the activity was estimated using the formula: Activity of the sample = (ΔA/minute x 1746). Analysis and final calculations were carried out according to the manufacturer’s protocol ([29]) For AST activity estimation, Reagent 1 (Tris Buffer, L-Aspartate, Lactate Dehydrogenase; >600U/L, Malate dehydrogenase; >600U/L) and Reagent 2 (α-ketoglutarate, NADH) was mixed together (4:1) with 100 µl serum. After incubation for 60 seconds, absorbance was measured at 340 nm per minute for 180 seconds (ΔA/minute). Finally, the activity was estimated using the formula: Activity of the sample = (ΔA/minute x 1746). Analysis and final calculations were carried out according to the manufacturer’s protocol ([30]). For estimation of creatinine level, picric acid (0.5 ml), buffer (0.5 ml) and sample (Test)/standard (S) (0.1 ml) were mixed and absorbance was measured at 520 nm for 30 seconds and 60 seconds. The rate of change of absorbance was determined for the standard (ΔS) and test (ΔT) samples. The levels were estimated using the formula: creatinine (mg/dl) = (ΔT)/(ΔS) x 2.0 ([31]). Urea levels were estimated using specific metabolite analysis kits. Buffer (1 ml), enzyme (0.1 ml), sample (test)/standard (0.1 ml) and chromogen reagent (0.2 ml) were mixed. Absorbance was measured at 570 nm after 5 minutes of incubation of test (Abs T) and standard (Abs S) samples. The levels were estimated using the formula: Urea (mg/dl) = (AbsT)/(AbsS) x 40. Analysis and calculations were carried out according to the manufacturer’s protocol ([32]). […]

[2] = tested on: normal mice; assay: Hematological parameters of normal mice treated with ART
Description: Blood was drawn for hematological estimations by thoracotomy and collected in heparinized vials. Blood was diluted using RBC diluting fluid (1: 1000) and WBC diluting fluid (1:100), and RBCs and WBCs were counted using a Neubauer counting chamber. Differential count was performed on blood smear stained with Leishman stain and observed under a microscope at 40X magnification (Dewinter Optical Inc., India). The percentage of lymphocytes, neutrophils, monocytes, eosinophils and basophils were recorded according to their nuclear structure ([27]). Hemoglobin content was estimated using Drabkin’s solution (1g sodium bicarbonate, 0.05g potassium cyanide and 0.2g potassium ferricyanide per liter), which lysed RBCs to convert hemoglobin to cyanmethemoglobin. Finally, the hemoglobin content of the test and the standard samples were obtained in gm/dl by recording the O.D. at 540 nm, and using the formula: O.D of test/O.D of standard x concentration of standard ([28]).

[3] = Body weight of mice
Description: Mouse mammary 4T1 cells in passage numbers between 7 and 12 (10^4 cells/ml in 50 µl PBS) were injected into the inguinal 4th mammary fat pad of BALB/c mice ([23], [24]). Normal mice received an equal volume of sterile PBS. A palpable tumor was allowed to develop for 14 days ([24]). […] Normal (mammary fat pad surrounding the 4th inguinal mammary pad), mammary tumor, and organs like lungs, kidney, liver, and blood were collected at the end of the experimental schedule. Body weight and tumor volume of each mouse were recorded daily during the tenure of the experiment. Tumor volume was calculated using the following formula: length (mm) × width^2 (mm) × 0.52 ([25]).

[4] = ART 6.25 mg/kg body wt, 3 weeks (21 days)
[5] = ART 12.5 mg/kg body wt, 3 weeks (21 days)
[6] = ART 25 mg/kg body wt, 3 weeks (21 days)
[7] = ART 50 mg/kg body wt, 3 weeks (21 days)

With `C[C@@H]1CC[C@H]2[C@@H](C)C(=O)O[C@@H]3O[C@@]4(C)CC[C@@H]1[C@]32OO4` [ART, Artemisinin] the ALT [1, 4] was 28.1±2.6 U/l, the AST [1, 4] was 29.8±4.6 U/l and the Creatinine [1, 4] was 0.48 ± 0.21 mg/dL. The Urea [1, 4] was 31.6 ± 1.9 mg/dL, the ALT ([1]; ART 6.25 mg/kg body wt, 7 days) was 23.7 ± 1.8 U/l and the AST ([1]; ART 6.25 mg/kg body wt, 7 days) was 27.3 ± 0.8 U/l. It also gave a Creatinine ([1]; ART 6.25 mg/kg body wt, 7 days) of 0.51 ± 0.09 mg/dL, a Urea ([1]; ART 6.25 mg/kg body wt, 7 days) of 24.5 ± 1.2 mg/dL and an ALT [1, 5] of 29.3±3.1 U/l. The AST [1, 5] was 31.4±2.6 U/l, the Creatinine [1, 5] was 0.68 ± 0.12 mg/dL and the Urea [1, 5] was 28.7 ± 2.3 mg/dL. It also gave an ALT ([1]; ART 12.5 mg/kg body wt, 7 days) of 26.6 ± 2.2 U/l, an AST ([1]; ART 12.5 mg/kg body wt, 7 days) of 29.6 ± 1.3 U/l and a Creatinine ([1]; ART 12.5 mg/kg body wt, 7 days) of 0.77 ± 0.13 mg/dL. The Urea ([1]; ART 12.5 mg/kg body wt, 7 days) was 26.3 ± 1.6 mg/dL, the ALT [1, 6] was 29.5±2.1 U/l and the AST [1, 6] was 28.5±2.8 U/l. It also gave a Creatinine [1, 6] of 0.49 ± 0.3 mg/dL, a Urea [1, 6] of 30.1 ± 2.6 mg/dL and an ALT ([1]; ART 25 mg/kg body wt, 7 days) of 30.7 ± 1.5 U/l. For the same molecule, the AST ([1]; ART 25 mg/kg body wt, 7 days) was 31.7 ± 3.1 U/l, the Creatinine ([1]; ART 25 mg/kg body wt, 7 days) was 0.62 ± 0.07 mg/dL and the Urea ([1]; ART 25 mg/kg body wt, 7 days) was 28.2 ± 0.8 mg/dL. The ALT [1, 7] was 28.8±3.2 U/l, the AST [1, 7] was 30.3±1.9 U/l and the Creatinine [1, 7] was 0.62 ± 0.38 mg/dL. For the same molecule, the Urea [1, 7] was 28.9 ± 2.1 mg/dL, the ALT ([1]; ART 50 mg/kg body wt, 7 days) was 26.4 ± 2.3 U/l and the AST ([1]; ART 50 mg/kg body wt, 7 days) was 29.3 ± 2.6 U/l. The Creatinine ([1]; ART 50 mg/kg body wt, 7 days) was 0.71 ± 0.1 mg/dL, the Urea ([1]; ART 50 mg/kg body wt, 7 days) was 27.1 ± 1.3 mg/dL and the “Differential Count % B (Basophils)” value ([2]; ART 6.25 mg/kg body wt) was 0%. The “Differential Count % E (Eosinophils)” value ([2]; ART 6.25 mg/kg body wt) was 0%, the “Differential Count % L (Lymphocytes)” value ([2]; ART 6.25 mg/kg body wt) was 67± 4.1% and the “Differential Count % M (Monocytes)” value ([2]; ART 6.25 mg/kg body wt) was 0%. The “Differential Count % N (Neutrophils)” value ([2]; ART 6.25 mg/kg body wt) was 33± 3.1%, the Hb ([2]; ART 6.25 mg/kg body wt) was 13.1 ± 0.45 g/dL and the “Total RBC” value ([2]; ART 6.25 mg/kg body wt) was 8.1± 0.62 10^6cells/mm^3. The “Differential Count % B (Basophils)” value ([2]; ART 12.5 mg/kg body wt) was 0%, the “Differential Count % E (Eosinophils)” value ([2]; ART 12.5 mg/kg body wt) was 0% and the “Differential Count % L (Lymphocytes)” value ([2]; ART 12.5 mg/kg body wt) was 72± 1.7%. For the same molecule, the “Differential Count % M (Monocytes)” value ([2]; ART 12.5 mg/kg body wt) was 0%, the “Differential Count % N (Neutrophils)” value ([2]; ART 12.5 mg/kg body wt) was 28± 3.5% and the Hb ([2]; ART 12.5 mg/kg body wt) was 14.1 ± 0.47 g/dL. For the same molecule, the “Total RBC” value ([2]; ART 12.5 mg/kg body wt) was 7.8± 0.38 10^6cells/mm^3, the “Total WBC” value ([2]; ART 12.5 mg/kg body wt) was 8.3± 1.8 10^3 cells/mm^3 and the “Differential Count % B (Basophils)” value ([2]; ART 25 mg/kg body wt) was 0%. For the same molecule, the “Differential Count % E (Eosinophils)” value ([2]; ART 25 mg/kg body wt) was 0%, the “Differential Count % L (Lymphocytes)” value ([2]; ART 25 mg/kg body wt) was 74± 3.4% and the “Differential Count % M (Monocytes)” value ([2]; ART 25 mg/kg body wt) was 0%. For the same molecule, the “Differential Count % N (Neutrophils)” value ([2]; ART 25 mg/kg body wt) was 26± 2.3%, the Hb ([2]; ART 25 mg/kg body wt) was 14.7 ± 0.39 g/dL and the “Total RBC” value ([2]; ART 25 mg/kg body wt) was 8.2± 0.34 10^6cells/mm^3. The “Total WBC” value ([2]; ART 25 mg/kg body wt) was 8.75± 2.6 10^3 cells/mm^3, the “Differential Count % B (Basophils)” value ([2]; ART 50 mg/kg body wt) was 0% and the “Differential Count % E (Eosinophils)” value ([2]; ART 50 mg/kg body wt) was 0%. The “Differential Count % L (Lymphocytes)” value ([2]; ART 50 mg/kg body wt) was 70± 2.2%, the “Differential Count % M (Monocytes)” value ([2]; ART 50 mg/kg body wt) was 1% and the “Differential Count % N (Neutrophils)” value ([2]; ART 50 mg/kg body wt) was 29 ± 3.2%. The Hb ([2]; ART 50 mg/kg body wt) was 13.8 ± 0.41 g/dL, the “Total RBC” value ([2]; ART 50 mg/kg body wt) was 8.1± 0.41 10^6cells/mm^3 and the “Total WBC” value ([2]; ART 50 mg/kg body wt) was 8.3± 1.44 10^3 cells/mm^3. The body weight ([3]; normal mice, ART 6.25-50 mg/kg, 7 days, vs vehicle) was “did not alter” and the body weight ([3]; tumor-bearing mice, ART treatment, dose-dependent) was “restored towards normal values”.

— PMC10748408 (Frontiers in Oncology, 2023)
